# Patent US12466803B2 (priority 2021, dated 2025)
# Tested on: phospho (S293) BCKDHA in human skeletal myocytes
# Experiment: Phospho BCKDHA Alpha Surefire Cell Assay
# Format: cell-based
# Settings: 60 minutes with compound, geometric mean
row,IC50,Structure (SMILES)
1,> 24 µM,"C[C@@H]1CCc2cc(-c3c(C(=O)O)sc4cc(Cl)ccc34)ccc2O1 (single isomer, unassigned) [Example 42, 6-chloro-3-(2-methyl-3,4-dihydro-2H-1-benzopyran-6-yl)-1-benzothiophene-2-carboxylic acid, ENANT-2]"
2,> 56 µM,"C[C@@H]1CCc2cc(-c3c(C(=O)O)sc4cc(F)ccc34)ccc2O1 (single isomer, unassigned) [Example 44, 6-fluoro-3-(2-methyl-3,4-dihydro-2H-1-benzopyran-6-yl)-1-benzothiophene-2-carboxylic acid, ENANT-2]"
3,> 60 µM,"C[C@@H]1CCc2cc(-c3c(C(=O)O)sc4ccccc34)ccc2O1 (single isomer, unassigned) [Example 45, 3-(2-methyl-3,4-dihydro-2H-1-benzopyran-6-yl)-1-benzothiophene-2-carboxylic acid, ENANT-1]"
4,> 29 µM,"C[C@@H]1CCc2cc(-c3c(C(=O)O)sc4ccccc34)ccc2O1 (single isomer, unassigned) [Example 46, 3-(2-methyl-3,4-dihydro-2H-1-benzopyran-6-yl)-1-benzothiophene-2-carboxylic acid, ENANT-2]"
5,3.6 µM,"C[C@@H]1CCc2cc(-c3c(C(=O)O)sc4cc(F)ccc34)c(F)cc2O1 (single isomer, unassigned) [Example 69, 6-fluoro-3-(7-fluoro-2-methyl-3,4-dihydro-2H-1-benzopyran-6-yl)-1-benzothiophene-2-carboxylic acid, ENANT-2]"
6,8.6 µM,"C[C@@H]1CCc2c(ccc(-c3c(C(=O)O)sc4cc(F)ccc34)c2F)O1 (single isomer, unassigned) [Example 77, 6-fluoro-3-(5-fluoro-2-methyl-3,4-dihydro-2H-1-benzopyran-6-yl)-1-benzothiophene-2-carboxylic acid, ENANT-1]"
7,3.9 µM,"C[C@@H]1CCc2c(ccc(-c3c(C(=O)O)sc4cc(F)ccc34)c2F)O1 (single isomer, unassigned) [Example 78, 6-fluoro-3-(5-fluoro-2-methyl-3,4-dihydro-2H-1-benzopyran-6-yl)-1-benzothiophene-2-carboxylic acid, ENANT-2]"

row,Structure (SMILES),IC50
1,"COc1c(F)cc(Cl)c(-c2c(C(=O)O)sc3cc(F)ccc23)c1F (atropisomer, axis not shown) [Example 15, 3-(6-Chloro-2,4-difluoro-3-methoxyphenyl)-6-fluoro-1-benzothiophene-2-carboxylic acid, ATROP-1]",> 60 µM
2,"COc1c(F)cc(Cl)c(-c2c(C(=O)O)sc3cc(F)ccc23)c1F (atropisomer, axis not shown) [Example 16, 3-(6-Chloro-2,4-difluoro-3-methoxyphenyl)-6-fluoro-1-benzothiophene-2-carboxylic acid, ATROP-2]",0.015 µM

# Same assay, conditions: Homo sapiens, 1 h, 60 minutes with compound, geometric mean
row,IC50,Structure (SMILES)
1,> 40 µM,"C[C@@H]1CCc2cc(-c3c(C(=O)O)sc4cc(Cl)ccc34)ccc2O1 (single isomer, unassigned) [Example 41, 6-chloro-3-(2-methyl-3,4-dihydro-2H-1-benzopyran-6-yl)-1-benzothiophene-2-carboxylic acid, ENANT-1]"
2,> 60 µM,"C[C@@H]1CCc2cc(-c3c(C(=O)O)sc4cc(F)ccc34)ccc2O1 (single isomer, unassigned) [Example 43, 6-fluoro-3-(2-methyl-3,4-dihydro-2H-1-benzopyran-6-yl)-1-benzothiophene-2-carboxylic acid, ENANT-1]"
3,> 60 µM,"C[C@H]1CCc2ccc(-c3c(C(=O)O)sc4cc(F)ccc34)cc2O1 (single isomer, unassigned) [Example 57, 6-fluoro-3-(2-methyl-3,4-dihydro-2H-1-benzopyran-7-yl)-1-benzothiophene-2-carboxylic acid, ENANT-1]"
4,6 µM,"C[C@@H]1CCc2cc(-c3c(C(=O)O)sc4cc(F)ccc34)c(F)cc2O1 (single isomer, unassigned) [Example 68, 6-fluoro-3-(7-fluoro-2-methyl-3,4-dihydro-2H-1-benzopyran-6-yl)-1-benzothiophene-2-carboxylic acid, ENANT-1]"
5,4.5 µM,"C[C@@H]1CCc2cc(-c3c(C(=O)O)sc4cc(F)ccc34)cc(F)c2O1 (single isomer, unassigned) [Example 72, 6-fluoro-3-(8-fluoro-2-methyl-3,4-dihydro-2H-1-benzopyran-6-yl)-1-benzothiophene-2-carboxylic acid, ENANT-1]"
6,0.43 µM,"O=C(O)c1sc2cc(F)ccc2c1-c1c(F)cc2c(c1F)CCCO2 [Example 1, 3-(5,7-Difluoro-3,4-dihydro-2H-1-benzopyran-6-yl)-6-fluoro-1-benzothiophene-2-carboxylic acid]"
7,1 µM,"CC1CCc2c(cc(F)c(-c3c(C(=O)O)sc4cc(F)ccc34)c2F)O1 (stereo not shown) [Example 3, 3-(5,7-Difluoro-2-methyl-3,4-dihydro-2H-1-benzopyran-6-yl)-6-fluoro-1-benzothiophene-2-carboxylic acid]"
8,> 60 µM,"O=C(O)c1sc2c(F)c(F)ccc2c1-c1ccccc1 [Example 4, 6,7-Difluoro-3-phenyl-1-benzothiophene-2-carboxylic acid]"
9,> 60 µM,"O=C(O)c1sc2cc(F)cc(F)c2c1-c1ccccc1 [Example 5, Ammonium 4,6-difluoro-3-phenyl-1-benzothiophene-2-carboxylate]"
10,0.094 µM,"O=C(O)c1sc2cc(F)ccc2c1-c1cc(Cl)c(Cl)cc1F [Example 7, 3-(4,5-Dichloro-2-fluorophenyl)-6-fluoro-1-benzothiophene-2-carboxylic acid]"
11,0.72 µM,"Cc1ncc(F)c(-c2c(C(=O)O)sc3cc(F)ccc23)c1F [Example 8, 3-(3,5-Difluoro-2-methylpyridin-4-yl)-6-fluoro-1-benzothiophene-2-carboxylic acid]"
12,0.066 µM,"Cc1c(F)c(F)cc(-c2c(C(=O)O)sc3cc(Cl)ccc23)c1F [Example 10, 6-Chloro-3-(2,4,5-trifluoro-3-methylphenyl)-1-benzothiophene-2-carboxylic acid]"
13,0.11 µM,"COc1c(F)c(F)cc(-c2c(C(=O)O)sc3cc(Cl)ccc23)c1F [Example 12, Ammonium 6-chloro-3-(2,4,5-trifluoro-3-methoxyphenyl)-1-benzothiophene-2-carboxylate]"
14,0.048 µM,"COc1c(F)ccc(-c2c(C(=O)O)sc3cc(Cl)ccc23)c1F [Example 13, 6-Chloro-3-(2,4-difluoro-3-methoxyphenyl)-1-benzothiophene-2-carboxylic acid]"
15,0.88 µM,"COc1c(F)c(F)cc(-c2c(C(=O)O)oc3cc(F)ccc23)c1F [Example 17, 6-Fluoro-3-(2,4,5-trifluoro-3-methoxyphenyl)-1-benzofuran-2-carboxylic acid]"
16,0.57 µM,"COc1c(F)c(F)cc(-c2c(C(=O)O)oc3cc(Cl)ccc23)c1F [Example 18, 6-Chloro-3-(2,4,5-trifluoro-3-methoxyphenyl)-1-benzofuran-2-carboxylic acid]"
17,4.4 µM,"O=C(O)c1sc2cc(F)ccc2c1-c1ccc(F)c(F)c1F [Example 19, 6-Fluoro-3-(2,3,4-trifluorophenyl)-1-benzothiophene-2-carboxylic acid]"
18,2.4 µM,"O=C(O)c1sc2cc(Cl)ccc2c1-c1ccc(Cl)c(F)c1 [Example 20, 6-Chloro-3-(4-chloro-3-fluorophenyl)-1-benzothiophene-2-carboxylic acid]"
19,23 µM,"O=C(O)c1sc2cc(F)ccc2c1-c1cc(F)c(F)c(O)c1F [Example 22, 6-Fluoro-3-(2,4,5-trifluoro-3-hydroxyphenyl)-1-benzothiophene-2-carboxylic acid]"
20,0.4 µM,"O=C(O)c1sc2cc(F)ccc2c1-c1cc(F)c(F)c(Cl)c1F [Example 24, 3-(3-Chloro-2,4,5-trifluorophenyl)-6-fluoro-1-benzothiophene-2-carboxylic acid]"
21,5.5 µM,"COc1cccc(-c2c(C(=O)O)sc3ccccc23)c1F [Example 26, 3-(2-fluoro-3-methoxyphenyl)-1-benzothiophene-2-carboxylic acid]"
22,4.9 µM,"O=C(O)c1sc2cc(F)ccc2c1-c1ccc2c(c1)CCCO2 [Example 28, 3-(3,4-dihydro-2H-1-benzopyran-6-yl)-6-fluoro-1-benzothiophene-2-carboxylic acid]"
23,2.6 µM,"COc1cccc(-c2c(C(=O)O)sc3cc(Cl)ccc23)c1F [Example 30, 6-chloro-3-(2-fluoro-3-methoxyphenyl)-1-benzothiophene-2-carboxylic acid]"
24,1.9 µM,"O=C(O)c1sc2cc(F)ccc2c1-c1ccc2c(c1F)CCCO2 [Example 32, 6-fluoro-3-(5-fluoro-3,4-dihydro-2H-1-benzopyran-6-yl)-1-benzothiophene-2-carboxylic acid]"
25,1.1 µM,"O=C(O)c1sc2cc(Cl)ccc2c1-c1ccc(F)c(F)c1F [Example 33, 6-chloro-3-(2,3,4-trifluorophenyl)-1-benzothiophene-2-carboxylic acid]"
26,> 60 µM,"CCOc1ccc(-c2c(C(=O)O)sc3cc(F)ccc23)c(F)c1F [Example 34, 3-(4-ethoxy-2,3-difluorophenyl)-6-fluoro-1-benzothiophene-2-carboxylic acid]"
27,> 60 µM,"COc1ccc(-c2c(C(=O)O)sc3cc(F)ccc23)c(F)c1F [Example 35, 3-(2,3-difluoro-4-methoxyphenyl)-6-fluoro-1-benzothiophene-2-carboxylic acid]"
28,3 µM,"COc1cc(-c2c(C(=O)O)sc3cc(F)ccc23)c(F)cc1Cl [Example 36, 3-(4-chloro-2-fluoro-5-methoxyphenyl)-6-fluoro-1-benzothiophene-2-carboxylic acid]"
29,25 µM,"O=C(O)c1sc2cc(F)ccc2c1-c1ccc2c(c1)CCCC2 [Example 37, 6-fluoro-3-(5,6,7,8-tetrahydronaphthalen-2-yl)-1-benzothiophene-2-carboxylic acid]"
30,0.46 µM,"Cc1c(Cl)ccc(-c2c(C(=O)O)sc3cc(F)ccc23)c1F [Example 38, 3-(4-chloro-2-fluoro-3-methylphenyl)-6-fluoro-1-benzothiophene-2-carboxylic acid]"

row,Structure (SMILES),IC50
1,"COc1c(F)cc(Cl)c(-c2c(C(=O)O)sc3cc(F)ccc23)c1F [Example 14, 3-(6-Chloro-2,4-difluoro-3-methoxyphenyl)-6-fluoro-1-benzothiophene-2-carboxylic acid]",0.023 µM
